This note sets out measurements from patent US12543736B2, “Herbicidal compositions comprising mesotrione” (BASF SE, priority 2024, dated 2026).

Assay type in all cases: in vivo
The test system of one assay is Senecio vulgaris. The assay can be described thus: Example 3 post-emergence field trial, SENVU. The conditions noted are these: height 25-30 cm, 7 DAT. On the procedure:
(§1) In the examples below, using the method of S. R. Colby (1967) “Calculating synergistic and antagonistic responses of herbicide combinations”, Weeds 15, p. 22ff., the value E, which is expected if the activity of the individual active compounds is only additive, was calculated: [formula] • where • X=percent activity using active herbicide A at an application rate a; • Y=percent activity using active herbicide B (e.g. mesotrione) at an application rate b; • E=expected activity (in %) by A+B at application rates a+b. If the value found experimentally is higher than the value E calculated according to Colby, a synergistic effect is present. Evaluation was carried out using a scale from 0 to 100. 100 means no emergence of the plants, or complete destruction of at least the above-ground parts, and 0 means no damage or normal course of growth. A good herbicidal activity is given at values of at least 70, and very good herbicidal activity is given at values of at least 85. Post-Emergence Application of Herbicide A-1 (A-1) and Mesotrione (B) in Field Trials Herbicide A-1 (342 g/l) and mesotrione (100 g/l) were, together with addition of 0.5 v/v % MSO (methylated sed oil) as adjuvant, formulated in water as distribution medium (water volume 200 l/ha) and sprayed with commercial flat fan nozzles.

The subject of another assay is Erigeron canadensis. The assay can be described thus: Example 2 post-emergence greenhouse trial, ERICA. On the procedure: In the examples below, using the method of S. R. Colby (1967) “Calculating synergistic and antagonistic responses of herbicide combinations”, Weeds 15, p. 22ff., the value E, which is expected if the activity of the individual active compounds is only additive, was calculated: [formula] • where • X=percent activity using active herbicide A at an application rate a; • Y=percent activity using active herbicide B (e.g. mesotrione) at an application rate b; • E=expected activity (in %) by A+B at application rates a+b. If the value found experimentally is higher than the value E calculated according to Colby, a synergistic effect is present. The culture containers used were plastic pots containing loamy sand with approximately 3.0% of humus as substrate. The seeds of the test plants were sown separately for each species. For the post-emergence treatment, the test plants were grown to a plant height of from 3 to 15 cm, depending on the plant habit, and only then treated with the active compounds which had been suspended or emulsified in water. To this end, the test plants were either sown directly, and grown in the same containers, or they were first grown separately as seedlings and transplanted into the test containers a few days prior to treatment. Depending on the species, the plants were kept at 10-25° C. and 20-35° C., respectively. The test period extended over 2 to 4 weeks. During this time, the plants were tended and their response to the individual treatments was evaluated. Evaluation was carried out using a scale from 0 to 100. 100 means no emergence of the plants, or complete destruction of at least the above-ground parts, and 0 means no damage or normal course of growth. A good herbicidal activity is given at values of at least 70, and very good herbicidal activity is given at values of at least 85. Post-Emergence Application of Herbicide A-1 (A-1) and Mesotrione (B) in Greenhouse Trials Herbicide A-1 (342 g/l) and mesotrione (480 g/l) were, together with addition of 0.5 v/v % MSO (methylated sed oil) as adjuvant, formulated in water as distribution medium (water volume 200 l/ha) and sprayed with commercial flat fan nozzles.

A further assay relates to Glycine max. The assay can be described thus: Example 3 post-emergence field trial, GLXMA. The conditions noted are these: height 7-11 cm. On the procedure: as §1
The test system of the next assay is Digitaria sanguinalis. The assay can be described thus: Example 3 post-emergence field trial, DIGSA. The note with it: height 10-15 cm; for % herbicidal activity B / % herbicidal activity A-1: 42 DAT. On the procedure:
as §1

A further assay concerns Brachiaria decumbens. The assay can be described thus: Example 1 post-emergence greenhouse trial, BRADC. The note with it: growth stage 13, 21 DAT, g ai/ha: A-1 4, B 62.5. On the procedure: In the examples below, using the method of S. R. Colby (1967) “Calculating synergistic and antagonistic responses of herbicide combinations”, Weeds 15, p. 22ff., the value E, which is expected if the activity of the individual active compounds is only additive, was calculated: [formula] • where • X=percent activity using active herbicide A at an application rate a; • Y=percent activity using active herbicide B (e.g. mesotrione) at an application rate b; • E=expected activity (in %) by A+B at application rates a+b. If the value found experimentally is higher than the value E calculated according to Colby, a synergistic effect is present. The culture containers used were plastic pots containing loamy sand with approximately 3.0% of humus as substrate. The seeds of the test plants were sown separately for each species. For the post-emergence treatment, the test plants were grown to a plant height of from 3 to 15 cm, depending on the plant habit, and only then treated with the active compounds which had been suspended or emulsified in water. To this end, the test plants were either sown directly, and grown in the same containers, or they were first grown separately as seedlings and transplanted into the test containers a few days prior to treatment. […] During this time, the plants were tended and their response to the individual treatments was evaluated. […]

[1] abbreviates: growth stage 19, 7 DAT, g ai/ha: A-1 1, B 50.
[2] abbreviates: growth stage 19, 20 DAT, g ai/ha: A-1 0.5, B 50.
Setting [3] is: growth stage 19, 20 DAT, g ai/ha: A-1 2, B 50.
The mark [4] stands for this setting: 7 DAT, g ai/ha: A-1 12.5, B 105.
[5] abbreviates: 21 DAT, g ai/ha: A-1 12.5, B 105.

In the case of `CS(=O)(=O)c1ccc(C(=O)C2C(=O)CCCC2=O)c([N+](=O)[O-])c1` [B, mesotrione], the “% herbicidal activity” value in the assay on Senecio vulgaris (g ai/ha: A-1 12.5, B 210) was 40%; in the assay on Senecio vulgaris (g ai/ha: A-1 18, B 210), 40%; with Erigeron canadensis (setting [1]) it was 25%; with Erigeron canadensis (setting [2]) it was 80%; in the assay with Erigeron canadensis (setting [3]), 80%; in the assay with Glycine max (setting [4]) it was 55%. Further, the “% herbicidal activity” value in the assay with Glycine max (7 DAT, g ai/ha: A-1 18, B 105) came to 55%; in the assay on Glycine max (setting [5]), 45%; in the assay with Digitaria sanguinalis (setting [4]), 50%; in the assay on Digitaria sanguinalis (7 DAT, g ai/ha: A-1 18, B 105) it was 50%; in the assay on Digitaria sanguinalis (setting [5]), 65%; in the assay with Digitaria sanguinalis (21 DAT, g ai/ha: A-1 18, B 105), 65%. Besides, in the assay on Brachiaria decumbens, the “% herbicidal activity” value was 20%. The “% herbicidal activity B” value in the assay with Digitaria sanguinalis (B 105 g ai/ha) was found to be 55%; in the assay with Digitaria sanguinalis (B 210 g ai/ha) it was 70%.
As to `CCOC(=O)COc1ccccc1Oc1nc(-n2c(=O)cc(C(F)(F)F)n(C)c2=O)c(F)cc1Cl` [A-1, ethyl 2-[2-[[3-chloro-5-fluoro-6-[3-methyl-2,6-dioxo-4-(trifluoromethyl)pyrimidin-1-yl]-2-pyridyl]oxy]phenoxy]acetate], the “% herbicidal activity” value with Senecio vulgaris (g ai/ha: A-1 12.5, B 210) came to 85%; in the assay with Senecio vulgaris (g ai/ha: A-1 18, B 210), 88%; in the assay on Erigeron canadensis (setting [1]), 80%; in the assay on Erigeron canadensis (setting [2]), 70%; in the assay with Erigeron canadensis (setting [3]), 85%; with Glycine max (setting [4]), 90%. Besides, the “% herbicidal activity” value is listed as 90% in the assay on Glycine max (7 DAT, g ai/ha: A-1 18, B 105); 92% with Glycine max (setting [5]); 80% in the assay on Digitaria sanguinalis (setting [4]); 80% in the assay on Digitaria sanguinalis (7 DAT, g ai/ha: A-1 18, B 105); 70% with Digitaria sanguinalis (setting [5]); 80% with Digitaria sanguinalis (21 DAT, g ai/ha: A-1 18, B 105). In addition, the “% herbicidal activity” value in the assay on Brachiaria decumbens came out at 98%. Further, the “% herbicidal activity A-1” value in the assay with Digitaria sanguinalis (A-1 12.5 g ai/ha) was 65%; with Digitaria sanguinalis (A-1 18 g ai/ha) it was 70%.
